Data: patent publication US20250163055A1, “POLYMORPH OF JAK TYROSINE KINASE INHIBITOR AND PREPARATION METHOD THEREFOR” (Prime Gene Therapeutics Co., Ltd., priority 2022, published 2025)
Values after ≈ are worked out from the molar mass of the structure shown. “Also recorded” adds a separate entry of the source. Like-named read-outs stand apart in the source and are kept apart here. Blank lines part the entries; values can stand above or below the compound they belong to.

Tests used:
[1] = Transdermal test of gel preparations (transdermal rate); assay type: in vitro ADME; conditions: gel preparation; receiving medium 5.0% Tween 80, pH 5.5 phosphate
From the text: Take the crystal obtained in Examples 1 or 6 and prepare it into gel preparation (the process for preparing the gel preparation can be: after stirring PEG400, propylene glycol, glycerin, ethanol and the crystal of Example 1 or 6, mix with EDTA aqueous solution, add in the swelled carbomer aqueous solution, adjust pH to be 6 with 10% triethanolamine solution, to obtain the gel). Measure respective transdermal rate (receiving medium 5.0% Tween 80, pH 5.5 phosphate).

[2] = Long-term (24-months) stability of crystal forms; assay type: physicochemical; conditions: for stability of the crystal form (result in words): long-term stability investigation, summary; for Appearance / Content / Loss on Drying / Related Substances, Most Unknown Impurity / Related Substances, Total Impurities / Crystal Form: long-term stability
From the text: The crystals prepared in examples 1, 3 and 6 were selected, and the stability of the crystal forms 1, IIa and IIb was investigated in accordance with the stability research guidelines issued by the National Medical Product Administration. The crystals were packed in pharmaceutical low-density polyethylene bags, and 24 months long-term stability was investigated.

[3] = Solubility measurement at different pH (37° C., 24 h); assay type: physicochemical; conditions: for solubility at 24 h: 37 °C, thermodynamic from solid, read-out: solubility, concentration
From the text: (§1) Solubility Investigation of Different Crystal Forms

[4] = Pharmacokinetic experiment in male SD rats (oral, intravenous, transdermal); assay type: in vivo, rat
Description: (§2) The solid powders of Examples 1 and 6, and the hydrogel preparations thereof were taken, and the PK values of rats administered by oral gavage and transdermal application were respectively determined. Male SD rats were divided into groups, 3 rats in each group, and were administered the compounds obtained in Examples 1 and 6 by oral gavage (oral group). administered Example 1 intravenously (intravenous group), and administered the gel preparations prepared from the compounds of Examples 1 and 6 topically to the skin (transdermal group). Animals were fasted overnight before the experiment, and the fasting time ranged from 10 hours before administration to 4 hours after administration. Blood was collected at 0.25, 0.5, 1, 2, 4, 6, 8 and 24 hours after administration in oral group and transdermal group, and at 0.083, 0.25, 0.5, 1, 2, 4, 6, 8 and 24 hours after administration in intravenous group. After being anesthetized with isoflurane using a small animal anesthesia machine, 0.3 mL of whole blood was collected through the fundus venous plexus and placed in a heparin anticoagulant tube. The blood samples were centrifuged at 4° C. and 4000 rpm for 5 min, and plasma was transferred to a centrifuge tube and placed at −80° C. until analysis. Plasma was extracted by protein precipitation method, and the extract was analyzed by LC/MS/MS. The transdermal group was administered for 24 hours and the skin at the administration site was peeled off after washing off the epidermal drug, and the drug content in the skin was analyzed by LC/MS/MS after homogenization.

[5] = Solubility of crystal forms in 20% propylene glycol at 32° C. over time; assay type: physicochemical; conditions: aqueous with cosolvent or surfactant or cyclodextrin, thermodynamic from solid
From the text: as §1

[6] = Stability of crystal form III on standing (NMR); assay type: physicochemical
Description: 15 mg of 2-{3-[3-amino-4-(7H-pyrrolo[2,3-d]pyrimidin-4-yl)-1H-pyrazol-1-yl]-1-(isopropylsulfonyl)azetidin-3-yl}acetonitrile was added to 3 mL of dioxane, then heated to 40° C. to dissolve and the obtained solution is clear. After filtration, the solution was volatilized and crystallized at 40° C. to obtain crystal form III.

[7] = Drug concentration in the skin after topical administration to skin for 24 hours; assay type: in vivo, rat; conditions: topical gel
Description: as §2, with “After being anesthetized with isoflurane using a small animal anesthesia machine, 0.3 mL of whole blood was collected through the fundus venous plexus and placed in a heparin anticoagulant tube. The blood samples were centrifuged at 4° C. and 4000 rpm for 5 min, and plasma was transferred to a centrifuge tube and placed at −80° C. until analysis.” left out

transdermal performance / transdermal absorption (result in words) [1]: better transdermal performance
stability of the crystal form (result in words) ([2]; listed as Crystal form I): good stability
stability of the crystal form (result in words) ([2]; listed as crystal form I): better chemical stability
Appearance ([2]; 0 month): Off-white powder
Content ([2]; 0 month): 99.9%
Loss on Drying ([2]; 0 month): 0.08%
Related Substances, Most Unknown Impurity ([2]; 0 month): 0.17%
Related Substances, Total Impurities ([2]; 0 month): 0.58%
Appearance ([2]; 3 months): Off-white powder
Content ([2]; 3 months): 100.1%
Loss on Drying ([2]; 3 months): 0.06%
Related Substances, Most Unknown Impurity ([2]; 3 months): 0.16%
Related Substances, Total Impurities ([2]; 3 months): 0.57%
Appearance ([2]; 6 months): Off-white powder
Content ([2]; 6 months): 100.0%
Loss on Drying ([2]; 6 months): 0.08%
Related Substances, Most Unknown Impurity ([2]; 6 months): 0.17%
Related Substances, Total Impurities ([2]; 6 months): 0.57%
Appearance ([2]; 9 months): Off-white powder
Content ([2]; 9 months): 99.8%
Loss on Drying ([2]; 9 months): 0.11%
Related Substances, Most Unknown Impurity ([2]; 9 months): 0.17%
Related Substances, Total Impurities ([2]; 9 months): 0.57%
Appearance ([2]; 12 months): Off-white powder
Content ([2]; 12 months): 99.9%
Loss on Drying ([2]; 12 months): 0.09%
Related Substances, Most Unknown Impurity ([2]; 12 months): 0.17%
Related Substances, Total Impurities ([2]; 12 months): 0.55%
Appearance ([2]; 18 months): Off-white powder
Content ([2]; 18 months): 99.7%
Loss on Drying ([2]; 18 months): 0.12%
Related Substances, Most Unknown Impurity ([2]; 18 months): 0.18%
Related Substances, Total Impurities ([2]; 18 months): 0.62%
Appearance ([2]; 24 months): Off-white powder
Content ([2]; 24 months): 99.8%
Loss on Drying ([2]; 24 months): 0.10%
Related Substances, Most Unknown Impurity ([2]; 24 months): 0.16%
Related Substances, Total Impurities ([2]; 24 months): 0.59%
solubility at 24 h ([3]; pH 6.8, aqueous buffer, pH 6.8, 37° C.): 1.2 µg/mL (≈ 3 µM)
solubility at 24 h ([3]; pH 7, aqueous buffer, pH 7.0, 37° C.): 1.3 µg/mL (≈ 3.25 µM)
solubility at 24 h ([3]; pH 8, aqueous buffer, pH 8.0, 37° C.): 1.2 µg/mL (≈ 3 µM)
half-life ([4]; male, SD, rat, plasma, iv, intravenous group): 2.49 h
AUC(0-inf) ([4]; male, SD, rat, plasma, iv, intravenous group, read-out: AUC0-inf): 496 ng·h/mL
half-life ([4]; male, SD, rat, plasma, po, oral group (gavage)): 5.33 h
AUC(0-inf) ([4]; male, SD, rat, plasma, po, oral group (gavage), read-out: AUC0-inf): 941 ng·h/mL
Cmax ([4]; male, SD, rat, plasma, po, oral group (gavage), read-out: Cmax): 111 ng/mL
Tmax ([4]; male, SD, rat, plasma, po, oral group (gavage), read-out: Tmax): 2.67 h
F ([4]; oral group (gavage)): 37%
clearance ([4]; rat, plasma, intravenous group): 69.2 mL/min/kg
Vd ([4]; rat, plasma, intravenous group, read-out: Vss): 4.93 L/kg
solubility at 18 h [5]: 20.2 µg/mL (≈ 50.4 µM)
SMILES: CC(C)S(=O)(=O)N1CC(CC#N)(n2cc(-c3ncnc4[nH]ccc34)c(N)n2)C1 [Example 1, 2-{3-[3-amino-4-(7H-pyrrolo[2,3-d]pyrimidin-4-yl)-1H-pyrazol-1-yl]-1-(isopropylsulfonyl)azetidin-3-yl}acetonitrile crystal form I]
solubility compared with crystal form IIb (result in words) ([3]; summary): higher solubility and oral bioavailability than crystal form IIb

Appearance ([2]; 0 month): Off-white powder
Content ([2]; 0 month): 99.8%
Crystal Form ([2]; 0 month): IIa
Loss on Drying ([2]; 0 month): 0.06%
Related Substances, Most Unknown Impurity ([2]; 0 month): 0.06%
Related Substances, Total Impurities ([2]; 0 month): 0.28%
Appearance ([2]; 3 months): Off-white powder
Content ([2]; 3 months): 97.6%
Crystal Form ([2]; 3 months): IIb
Loss on Drying ([2]; 3 months): 0.18%
Related Substances, Most Unknown Impurity ([2]; 3 months): 0.08%
Related Substances, Total Impurities ([2]; 3 months): 0.28%
Appearance ([2]; 6 months): Off-white powder
Content ([2]; 6 months): 97.8%
Crystal Form ([2]; 6 months): IIb
Loss on Drying ([2]; 6 months): 0.19%
Related Substances, Most Unknown Impurity ([2]; 6 months): 0.11%
Related Substances, Total Impurities ([2]; 6 months): 0.27%
Appearance ([2]; 9 months): Off-white powder
Content ([2]; 9 months): 97.9%
Crystal Form ([2]; 9 months): IIb
Loss on Drying ([2]; 9 months): 0.24%
Related Substances, Most Unknown Impurity ([2]; 9 months): 0.06%
Related Substances, Total Impurities ([2]; 9 months): 0.24%
Appearance ([2]; 12 months): Off-white powder
Content ([2]; 12 months): 97.8%
Crystal Form ([2]; 12 months): IIb
Loss on Drying ([2]; 12 months): 0.20%
Related Substances, Most Unknown Impurity ([2]; 12 months): 0.09%
Related Substances, Total Impurities ([2]; 12 months): 0.22%
Appearance ([2]; 18 months): Off-white powder
Content ([2]; 18 months): 98.0%
Crystal Form ([2]; 18 months): IIb
Loss on Drying ([2]; 18 months): 0.16%
Related Substances, Most Unknown Impurity ([2]; 18 months): 0.07%
Related Substances, Total Impurities ([2]; 18 months): 0.26%
Appearance ([2]; 24 months): Off-white powder
Content ([2]; 24 months): 97.8%
Crystal Form ([2]; 24 months): IIb
Loss on Drying ([2]; 24 months): 0.25%
Related Substances, Most Unknown Impurity ([2]; 24 months): 0.08%
Related Substances, Total Impurities ([2]; 24 months): 0.29%
SMILES: CC(C)S(=O)(=O)N1CC(CC#N)(n2cc(-c3ncnc4[nH]ccc34)c(N)n2)C1 [Example 3, 2-{3-[3-amino-4-(7H-pyrrolo[2,3-d]pyrimidin-4-yl)-1H-pyrazol-1-yl]-1-(isopropylsulfonyl)azetidin-3-yl}acetonitrile crystal form IIa]
stability of the crystal form (result in words) [2]: gradually absorbed water during standing and was transformed into crystal form IIb

crystallinity and stability (result in words) [6]: poor crystallinity and stability
impurities generated after standing (nuclear magnetic resonance) ([6]; after standing): about 10%
SMILES: CC(C)S(=O)(=O)N1CC(CC#N)(n2cc(-c3ncnc4[nH]ccc34)c(N)n2)C1 [Example 8, 2-{3-[3-amino-4-(7H-pyrrolo[2,3-d]pyrimidin-4-yl)-1H-pyrazol-1-yl]-1-(isopropylsulfonyl)azetidin-3-yl}acetonitrile crystal form III]

drug concentration retained in animal skin relative to crystal form I [7]: up to 7 times
Appearance ([2]; 0 month): Off-white
Content ([2]; 0 month): 99.7%
Crystal Form ([2]; 0 month): IIb
Loss on Drying ([2]; 0 month): 0.36%
Related Substances, Most Unknown Impurity ([2]; 0 month): 0.07%
Related Substances, Total Impurities ([2]; 0 month): 0.38%
Appearance ([2]; 3 months): Off-white
Content ([2]; 3 months): 99.7%
Crystal Form ([2]; 3 months): IIb
Loss on Drying ([2]; 3 months): 0.36%
Related Substances, Most Unknown Impurity ([2]; 3 months): 0.08%
Related Substances, Total Impurities ([2]; 3 months): 0.38%
Appearance ([2]; 6 months): Off-white
Content ([2]; 6 months): 99.6%
Crystal Form ([2]; 6 months): IIb
Loss on Drying ([2]; 6 months): 0.39%
Related Substances, Most Unknown Impurity ([2]; 6 months): 0.08%
Related Substances, Total Impurities ([2]; 6 months): 0.37%
Appearance ([2]; 9 months): Off-white
Content ([2]; 9 months): 99.5%
Crystal Form ([2]; 9 months): IIb
Loss on Drying ([2]; 9 months): 0.34%
Related Substances, Most Unknown Impurity ([2]; 9 months): 0.08%
Related Substances, Total Impurities ([2]; 9 months): 0.38%
Appearance ([2]; 12 months): Off-white
Content ([2]; 12 months): 99.6%
Crystal Form ([2]; 12 months): IIb
Loss on Drying ([2]; 12 months): 0.30%
Related Substances, Most Unknown Impurity ([2]; 12 months): 0.07%
Related Substances, Total Impurities ([2]; 12 months): 0.37%
Appearance ([2]; 18 months): Off-white
Content ([2]; 18 months): 99.6%
Crystal Form ([2]; 18 months): IIb
Loss on Drying ([2]; 18 months): 0.31%
Related Substances, Most Unknown Impurity ([2]; 18 months): 0.07%
Related Substances, Total Impurities ([2]; 18 months): 0.39%
Appearance ([2]; 24 months): Off-white
Content ([2]; 24 months): 99.7%
Crystal Form ([2]; 24 months): IIb
Loss on Drying ([2]; 24 months): 0.32%
Related Substances, Most Unknown Impurity ([2]; 24 months): 0.08%
Related Substances, Total Impurities ([2]; 24 months): 0.39%
AUC(0-inf) ([4]; oral group (gavage)): 537 ng·h/mL
Cmax ([4]; oral group (gavage)): 114 ng/mL
F ([4]; oral group (gavage)): 22%
T1/2 ([4]; oral group (gavage)): 3.40 h
Tmax ([4]; oral group (gavage)): 3.17 h
SMILES: CC(C)S(=O)(=O)N1CC(CC#N)(n2cc(-c3ncnc4[nH]ccc34)c(N)n2)C1 [Example 6, 2-{3-[3-amino-4-(7H-pyrrolo[2,3-d]pyrimidin-4-yl)-1H-pyrazol-1-yl]-1-(isopropylsulfonyl)azetidin-3-yl}acetonitrile crystal form IIb]
transdermal performance / transdermal absorption (result in words) [1]: inferior to crystal form I in transdermal absorption
stability of the crystal form (result in words) [2]: better chemical stability; also recorded: good stability
